The data set is classed as in vivo, human.

Structures are written as SMILES. Read-outs that look alike come from different tables or passages of the source.

As for `CC/C(=C(\c1ccccc1)c1ccc(OCCNC)cc1)c1ccccc1` [N-desmethyltamoxifen], where the note is “secondary screen, fall compared to winter”, the “Association of season with N-desmethyltamoxifen concentration, β” value was −1.053. For the same molecule, for the setting “secondary screen, greater weight”, the “Association of weight with N-desmethyltamoxifen concentration, β” value is −0.025.

As to `CC/C(=C(\c1ccc(O)cc1)c1ccc(OCCNC)cc1)c1ccccc1` [endoxifen], the “Final multivariable model, steady-state endoxifen concentration, B Coefficient (95% Confidence Interval)” value (CYP2C9 Activity Phenotype) was “.20 (0.03, 0.37)”; the “Final multivariable model, steady-state endoxifen concentration, B Coefficient (95% Confidence Interval)” value (CYP2D6 Diplotype IM/IM (vs. NM/NM)) is “−.87 (−1.4, −.34)”; the “Final multivariable model, steady-state endoxifen concentration, B Coefficient (95% Confidence Interval)” value (CYP2D6 Diplotype IM/PM (vs. NM/NM)) is given as “−.96 (−1.3, −.61)”; the “Final multivariable model, steady-state endoxifen concentration, B Coefficient (95% Confidence Interval)” value (CYP2D6 Diplotype NM/IM (vs. NM/NM)) is given as “−.35 (−.61, −.08)”; the “Final multivariable model, steady-state endoxifen concentration, B Coefficient (95% Confidence Interval)” value (CYP2D6 Diplotype NM/PM (vs. NM/NM)) is reported as “−.49 (−.73, −.26)”; the “Final multivariable model, steady-state endoxifen concentration, B Coefficient (95% Confidence Interval)” value (CYP2D6 Diplotype PM/PM (vs. NM/NM)) is recorded as −1.32 (−1.79, −.85). Moreover, the “Final multivariable model, steady-state endoxifen concentration, B Coefficient (95% Confidence Interval)” value runs as follows: (Season of Sample Collection Fall (vs. winter)) “−.48 (−.74, −.22)”; (Season of Sample Collection Summer (vs. winter)) “−.49 (−.79, −.19)”; (Weight (kg)) “−.013 (−.02, −.01)”. Besides, under “secondary screen, higher SULT1A1 predicted activity phenotype”, the “Association of SULT1A1 activity with endoxifen/4-OH-tamoxifen ratio, β” value is 0.54. The “Association of CYP2C8 activity with ratio of endoxifen to N-desmethyltamoxifen, β” value (secondary screen, increased CYP2C8 predicted activity phenotype) is 0.01. Moreover, the “Mean Endoxifen (Std. Dev.)” value reads like this: (steady state, tamoxifen 20 mg daily, ABCB1 predicted activity phenotype Normal) 7.01 (4.41) n=60 ng/mL; (steady state, tamoxifen 20 mg daily, ABCB1 predicted activity phenotype Poor) 8.93 (7.53) n=37 ng/mL; (steady state, tamoxifen 20 mg daily, ABCC2 predicted activity phenotype Normal) 8.29 (4.99) n=89 ng/mL; (steady state, tamoxifen 20 mg daily, ABCC2 predicted activity phenotype Poor) 9.30 (5.34) n=10 ng/mL; (steady state, tamoxifen 20 mg daily, ABCG2 predicted activity phenotype Normal) 7.90 (5.48) n=249 ng/mL; (steady state, tamoxifen 20 mg daily, ABCG2 predicted activity phenotype Poor) 12.82 (10.85) n=3 ng/mL. The “Mean Endoxifen (Std. Dev.)” value is listed as 8.05 (5.51) n=248 ng/mL (steady state, tamoxifen 20 mg daily, CYP1A1 predicted activity phenotype Normal); 3.19 (1.53) n=2 ng/mL (steady state, tamoxifen 20 mg daily, CYP1A1 predicted activity phenotype Poor); 8.13 (4.48) n=22 ng/mL (steady state, tamoxifen 20 mg daily, CYP1A2 predicted activity phenotype Normal); 9.57 (6.18) n=6 ng/mL (steady state, tamoxifen 20 mg daily, CYP1A2 predicted activity phenotype Poor); 7.95 (5.57) n=220 ng/mL (steady state, tamoxifen 20 mg daily, CYP2A6 predicted activity phenotype Normal); 7.46 (9.71) n=5 ng/mL (steady state, tamoxifen 20 mg daily, CYP2A6 predicted activity phenotype Poor). The “Mean Endoxifen (Std. Dev.)” value by setting is: (steady state, tamoxifen 20 mg daily, CYP2B6 predicted activity phenotype Normal) 8.11 (5.33) n=151 ng/mL; (steady state, tamoxifen 20 mg daily, CYP2B6 predicted activity phenotype Poor) 8.20 (4.81) n=24 ng/mL; (steady state, tamoxifen 20 mg daily, CYP2C8 predicted activity phenotype Normal) 8.38 (5.72) n=205 ng/mL; (steady state, tamoxifen 20 mg daily, CYP2C8 predicted activity phenotype Poor) 6.71 (5.04) n=13 ng/mL; (steady state, tamoxifen 20 mg daily, CYP2C9 predicted activity phenotype Normal) 8.29 (5.61) n=189 ng/mL; (steady state, tamoxifen 20 mg daily, CYP2C9 predicted activity phenotype Poor) 6.26 (4.82) n=9 ng/mL. Further, the “Mean Endoxifen (Std. Dev.)” value by setting is: (steady state, tamoxifen 20 mg daily, CYP2C19 predicted activity phenotype Normal) 7.64 (5.97) n=109 ng/mL; (steady state, tamoxifen 20 mg daily, CYP2C19 predicted activity phenotype Poor) 7.95 (5.66) n=13 ng/mL; (steady state, tamoxifen 20 mg daily, CYP2E1 predicted activity phenotype Normal) 8.03 (5.40) n=84 ng/mL; (steady state, tamoxifen 20 mg daily, CYP3A4 predicted activity phenotype Normal) 7.78 (5.39) n=288 ng/mL; (steady state, tamoxifen 20 mg daily, CYP3A5 predicted activity phenotype Normal) 8.51 (7.70) n=8 ng/mL; (steady state, tamoxifen 20 mg daily, CYP3A5 predicted activity phenotype Poor) 7.71 (5.29) n=240 ng/mL. Besides, the “Mean Endoxifen (Std. Dev.)” value reads like this: (steady state, tamoxifen 20 mg daily, SLCO1B1 predicted activity phenotype Normal) 8.63 (5.57) n=87 ng/mL; (steady state, tamoxifen 20 mg daily, SLCO1B1 predicted activity phenotype Poor) 6.97 (4.21) n=62 ng/mL; (steady state, tamoxifen 20 mg daily, SULT1A1 predicted activity phenotype Normal) 7.56 (4.51) n=111 ng/mL; (steady state, tamoxifen 20 mg daily, SULT1A1 predicted activity phenotype Poor) 7.81 (6.59) n=45 ng/mL; (steady state, tamoxifen 20 mg daily, SULT1A2 predicted activity phenotype Normal) 7.94 (5.23) n=84 ng/mL; (steady state, tamoxifen 20 mg daily, SULT1A2 predicted activity phenotype Poor) 7.72 (5.70) n=74 ng/mL. Also, the “Mean Endoxifen (Std. Dev.)” value (steady state, tamoxifen 20 mg daily, UGT2B7 predicted activity phenotype Normal) is recorded as 7.11 (5.09) n=73 ng/mL; the “Mean Endoxifen (Std. Dev.)” value (steady state, tamoxifen 20 mg daily, UGT2B7 predicted activity phenotype Poor) is on record as 8.38 (5.36) n=63 ng/mL; the “Mean Endoxifen (Std. Dev.)” value (steady state, tamoxifen 20 mg daily, UGT2B15 predicted activity phenotype Normal) is listed as 8.07 (5.82) n=71 ng/mL; the “Mean Endoxifen (Std. Dev.)” value (steady state, tamoxifen 20 mg daily, UGT2B15 predicted activity phenotype Poor) is reported as 7.75 (4.48) n=75 ng/mL; the “Mean Endoxifen (Std. Dev.)” value (steady state, tamoxifen 20 mg daily, UGT2B17 predicted activity phenotype Normal) is on record as 7.83 (5.25) n=122 ng/mL; the “Mean Endoxifen (Std. Dev.)” value (steady state, tamoxifen 20 mg daily, UGT2B17 predicted activity phenotype Poor) was 6.60 (5.48) n=35 ng/mL.

`CC/C(=C(\c1ccccc1)c1ccc(OCCN(C)C)cc1)c1ccccc1` [tamoxifen, reference compound]: the “tamoxifen concentrations by season of sample collection” value (steady state, tamoxifen 20 mg daily) is “not different between the seasons”.

Source of the values: paper PMC5659294 (Pharmacogenetics and genomics, 2017).
